Assay results: patent publication EP0966464B1, “SUBSTITUTED 2,4-DIAMINOPYRIMIDINES” (priority 1997, dated 1998)

What was measured:
Experiment in all cases: Inhibition of purified bacterial dihydrofolate reductase (method of Baccanari and Joyner)
Assay type in all cases: biochemical
[1] = molecular target: purified DHFR of the multiresistant strain S. aureus 157/4696 (Staphylococcus aureus, UniProt P0A017); conditions: read-out: IC50 values S.aureus 157/4696, IC50 determined by means of a graph
From the text: (§1) The inhibition of this enzyme was taken as a measurement of the antibacterial activity.

[2] = molecular target: purified DHFR of the reference strain S. aureus ATCC 25923 (Staphylococcus aureus, UniProt P0A017)
From the text: as §1

[3] = molecular target: T1, purified DHFR of the multiresistant strain Streptococcus pneumoniae 1/1 (Streptococcus pneumoniae serotype 4, UniProt Q54801); conditions: read-out: IC50 values S.pneumoniae 1/1, IC50 determined by means of a graph
T1 sequence (Q54801 1-168): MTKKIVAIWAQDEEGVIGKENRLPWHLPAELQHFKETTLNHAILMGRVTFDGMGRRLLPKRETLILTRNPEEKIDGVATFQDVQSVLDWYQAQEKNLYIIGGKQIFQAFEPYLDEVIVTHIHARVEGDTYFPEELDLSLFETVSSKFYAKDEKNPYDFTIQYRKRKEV
From the text: as §1

SMILES	IC50 [1]	IC50 [2]	IC50 [3]
COc1cc(Cc2cnc(N)nc2N)cc(/C=C/C(=O)N2N=Cc3ccccc3C2c2ccccc2)c1OC (racemic) [A, (E)-(RS)-3-[5-(2,4-Diamino-pyrimidin-5-ylmethyl)-2,3-dimethoxyphenyl]-1-(1-phenyl-1H-phthalazin-2-yl)-propenone]	2 nM	2 nM	12 nM
COc1cc(Cc2cnc(N)nc2N)cc(/C=C/C(=O)N2N=Cc3ccccc3C2c2ccco2)c1OC (racemic) [B, (E)-(RS)-3-[5-(2,4-Diamino-pyrimidin-5-ylmethyl)-2,3-dimethoxyphenyl]-1-(1-furan-2-yl-1H-phthalazin-2-yl)-propenone]	8 nM	2 nM	22 nM
COc1cc(Cc2cnc(N)nc2N)cc(/C=C/C(=O)N2N=Cc3ccccc3C2c2ccc(CO)cc2)c1OC (racemic) [C, (E)-(RS)-3-[5-(2,4-Diamino-pyrimidin-5-ylmethyl)-2,3-dimethoxyphenyl]-1-[1-(4-hydroxymethyl-phenyl)-1H-phthalazin-2-yl]-propenone]	1 nM	1 nM	2 nM
COc1cc(Cc2cnc(N)nc2N)cc(/C=C/C(=O)N2N=Cc3ccccc3C2c2ccc(O)cc2)c1OC (racemic) [D, (E)-(RS)-3-[5-(2,4-Diamino-pyrimidin-5-ylmethyl)-2,3-dimethoxyphenyl]-1-[1-(4-hydroxy-phenyl)-1H-phthalazin-2-yl]-propenone]	3 nM	2 nM	9 nM
CCC1c2ccccc2C=NN1C(=O)/C=C/c1cc(Cc2cnc(N)nc2N)cc(OC)c1OC (racemic) [E, (E)-(RS)-3-[5-(2,4-Diamino-pyrimidin-5-ylmethyl)-2,3-dimethoxyphenyl]-1-(1-ethyl-1H-phthalazin-2-yl)-propenone]	12 nM	2 nM	18 nM
COc1cc(Cc2cnc(N)nc2N)cc(/C=C/C(=O)N2N=Cc3ccccc3C2CCCCO)c1OC (racemic) [F, (E)-(RS)-3-[5-(2,4-Diamino-pyrimidin-5-ylmethyl)-2,3-dimethoxyphenyl]-1-[1-(4-hydroxy-butyl)-1H-phthalazin-2-yl]-propenone]	3 nM	1 nM	9 nM
CCCC1c2ccccc2C=NN1C(=O)/C=C/c1cc(Cc2cnc(N)nc2N)cc(OC)c1OC (racemic) [G, (E)-(RS)-3-{5-(2,4-Diamino-pyrimidin-5-ylmethyl)-2,3-dimethoxyphenyl}-1-(1-propyl-1H-phthalazin-2-yl)-propenone]	6 nM	2 nM	5 nM
COc1cc(Cc2cnc(N)nc2N)cc(/C=C/C(=O)N2N=Cc3ccccc3C2c2ccc(C)nc2)c1OC (racemic) [I, (E)-(RS)-3-[5-(2,4-Diamino-pyrimidin-5-ylmethyl)-2,3-dimethoxyphenyl)-1-[1-(6-methyl-pyridin-3-yl)-1H-phthalazin-2-yl]-propenone]	0.4 nM	0.4 nM	0.4 nM
CCc1ccc(C2c3ccccc3C=NN2C(=O)/C=C/c2cc(Cc3cnc(N)nc3N)cc(OC)c2OC)cn1 (racemic) [J, (E)-(RS)-3-[5-(2,4-Diamino-pyrimidin-5-ylmethyl)-2,3-dimethoxyphenyl]-1-[1-(6-ethyl-pyridin-3-yl)-1H-phthalazin-2-yl]-propenone]	0.2 nM	0.3 nM	1.5 nM
COc1cc(Cc2cnc(N)nc2N)cc(/C=C/C(=O)N2N=Cc3ccccc3C2c2cnc(C)nc2)c1OC (racemic) [K, (E)-(RS)-3-[5-(2,4-Diamino-pyrimidin-5-ylmethyl)-2,3-dimethoxyphenyl]-1-[1-(2-methyl-pyrimidin-5-yl)-1H-phthalazin-2-yl]-propenone]	0.6 nM	0.6 nM	2.5 nM
COc1cc(Cc2cnc(N)nc2N)cc(/C=C/C(=O)N2N=Cc3ccccc3[C@@H]2c2ccc(C)nc2)c1OC [H, (E)-(R)-3-[5-(2,4-Diamino-pyrimidin-5-ylmethyl)-2,3-dimethoxy-phenyl]-1-[1-(6-methyl-pyridin-3-yl)-1H-phthalazin-2-yl]-propenone]	0.4 nM	0.3 nM	1.2 nM
